Results: US20260184708A1, “PYRIDAZINONES AND METHODS OF USE THEREOF” (GFB (ABC), LLC, priority 2017, published 2026)

Key:
[1] = molecular target: T1, TRPC5 (Homo sapiens, UniProt Q9UL62); test: TRPC5 Fluorescence Assay - FLIPR format (HEK-TREx hTRPC5, Riluzole stimulation); type: cell-based; details: Table 10, read-out: TRPCS-FLIPR IC50
T1 construct: expressed in transfected cells; host or cells: HEK 293
T1 sequence (Q9UL62 1-973): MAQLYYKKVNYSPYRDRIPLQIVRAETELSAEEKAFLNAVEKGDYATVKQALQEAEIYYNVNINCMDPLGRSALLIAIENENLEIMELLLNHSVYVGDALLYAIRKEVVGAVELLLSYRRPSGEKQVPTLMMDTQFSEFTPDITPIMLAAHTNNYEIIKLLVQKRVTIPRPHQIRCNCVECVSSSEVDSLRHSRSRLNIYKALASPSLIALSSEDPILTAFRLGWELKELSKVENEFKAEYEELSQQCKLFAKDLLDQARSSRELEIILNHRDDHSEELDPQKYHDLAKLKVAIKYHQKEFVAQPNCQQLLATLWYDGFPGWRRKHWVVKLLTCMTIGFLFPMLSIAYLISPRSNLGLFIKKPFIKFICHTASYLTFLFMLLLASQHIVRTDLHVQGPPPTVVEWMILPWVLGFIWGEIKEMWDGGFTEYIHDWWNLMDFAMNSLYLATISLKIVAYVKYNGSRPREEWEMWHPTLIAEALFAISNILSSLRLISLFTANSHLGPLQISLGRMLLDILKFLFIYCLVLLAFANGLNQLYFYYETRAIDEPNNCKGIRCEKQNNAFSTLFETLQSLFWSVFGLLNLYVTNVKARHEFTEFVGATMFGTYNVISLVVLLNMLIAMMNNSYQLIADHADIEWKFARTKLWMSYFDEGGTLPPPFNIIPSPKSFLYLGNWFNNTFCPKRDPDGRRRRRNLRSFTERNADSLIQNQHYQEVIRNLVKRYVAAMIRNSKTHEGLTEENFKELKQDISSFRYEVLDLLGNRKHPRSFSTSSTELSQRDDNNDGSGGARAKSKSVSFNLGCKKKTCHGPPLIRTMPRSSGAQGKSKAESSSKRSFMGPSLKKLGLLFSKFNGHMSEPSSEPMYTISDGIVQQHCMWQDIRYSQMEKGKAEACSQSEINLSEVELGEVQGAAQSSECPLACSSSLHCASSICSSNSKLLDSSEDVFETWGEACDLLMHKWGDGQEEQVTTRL
Procedure: • Cell line: ICLN-001633 • Base Cell: HEK • Channel: TRPC5 • Species: Human • Thaw ID: multiple • Passage: multiple
FLIPR Assay Buffer (Earls Balanced Salt Solution (EBSS) was prepared as follows:
Test Agent Preparation: Compounds were made up to, or supplied as, a 10 mM stock solution generally using DMSO as the vehicle. 10-point dose response curves were generated using the Echo-550 acoustic dispenser. Compound source plates were made by serially diluting compound stocks to create 10 mM, 1 mM, and 0.1 mM solutions in DMSO into Echo certified LDV plates. The Echo then serially spotted 100% DMSO stock solutions into source dose response plates to generate a 4-fold dilution scheme. 100% DMSO was added to the spotted dose response plates to bring the final volume to 5 μl. […] of the dose response stock plate was then spotted into pre-incubation and stimulation assay plates. 50 μl of pre-incubation buffer and 100 μl of stimulation buffer was then added to the plates resulting in a final assay test concentration range of 30 μM to 0.0001 μM with a final DMSO concentration of 0.3%.
Experimental Methods: Cells expressing TRPC5 (HEK-TREx hTRPC5) are plated onto 384 well, black PDL-coated microplates and maintained in TRPC5 growth media the day prior to use for experiments. TRPC5 expression is induced by the application of […] tetracycline at the time of plating. Media is removed from the plates and 10 μl of 4 μM of Fluo-4 AM (mixed with equal volume of Pluronic F-127) in EBSS is added to the cells. Cells are incubated at room temperature, protected from light, for 60-90 minutes. After the incubation period, the dye is removed and replaced with 10 μl of EBSS. Cell, pre-incubation and stimulation plates are loaded onto the FLIPR-II and the assay is initiated. The FLIPR measures a 10 second baseline and then adds 10 μl of 2× compounds (or controls). Changes in fluorescence are monitored for an additional 5 minutes. After the 5 minute pre-incubation, 20 μl of 2× Riluzole (with 1× compound or controls) is added to the cell plate. The final Riluzole stimulation concentration in the assay is 30 μM. After the Riluzole addition, changes in fluorescence are monitored for an additional 5 minutes.
Test Agent Effect: Test agent modulation of TRPC5 calcium response was determined as follows. After the Riluzole, fluorescence was monitored for a 5 minute period. The maximum relative fluorescene response (minus the control response of 1 μM of the control inhibitor) was captured and exported from the FLIPR. Test agent effect was calculated as % inhibition using the following formula: % inhibition=((RFU Test Agent−Plate Average RFU REF INHIB)/(Plate Average RFU Control−Plate Average RFU REF INHIB))×100

[2] = molecular target: T1, TRPC5; test: TRPC5 automated patch clamp assay (Qpatch), current block after rosiglitazone stimulation; type: cell-based; details: HEK293 cells overexpressing TRPC5
Summary of the method: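 HEK 293 cells expressing human TRPC5, whole-cell QPatch recording; 1 μM buffered free internal Ca2+, external pH 7.4. Ramps −100 to +100 mV over 300 ms every 10 s from −60 mV holding; channel activated by Rosiglitazone (30 uM) after ≥60 s control. IC50 from Hill fit.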

[3] = Table 5, rosiglitazone stimulation, 80 mV, read-out: TRPC5_QP_ XC50_80
[4] = Table 5, rosiglitazone stimulation, 100 mV, read-out: TRPC5_QP_ XC50_100
[5] = Table 4, rosiglitazone stimulation, 80 mV, read-out: TRPC5_QP_ XC50_80
[6] = Table 4, rosiglitazone stimulation, 100 mV, read-out: TRPC5_QP_ XC50_100
[7] = Table 3, rosiglitazone stimulation, 80 mV, read-out: TRPC5_QP_ XC50_80
[8] = Table 3, rosiglitazone stimulation, 100 mV, read-out: TRPC5_QP_ XC50_100
[9] = rosiglitazone stimulation, 80 mV, read-out: TRPC5_QP XC50_80
[10] = rosiglitazone stimulation, 100 mV, read-out: TRPC5_QP XC50_100

| IC50 [2, 3] [µM] | IC50 [2, 4] [µM] | IC50 [2, 5] [µM] | IC50 [2, 6] [µM] | SMILES | other results |
| --- | --- | --- | --- | --- | --- |
| 10 to 500 | 10 to 500 |  |  | O=C1CN(c2cn[nH]c(=O)c2Cl)CCN1Cc1cccc2cn[nH]c12 |  |
|  |  | 5 to 10 | 5 to 10 | Cc1cc(F)ccc1CN1CCN(c2cc(C)c(=O)[nH]n2)CC1 |  |
|  |  | 10 to 500 | 10 to 500 | C[C@@H]1CN(CC(=O)N(C)C)CCN1c1cn[nH]c(=O)c1Cl |  |
|  |  | 10 to 500 | 10 to 500 | O=C1CN(c2cnnc(Br)c2Cl)CCN1Cc1ccc(F)cc1C(F)(F)F |  |
| 5 to 10 | 5 to 10 |  |  | Cc1n[nH]c(=O)c(N2CCN(Cc3ccccc3C(F)(F)F)C(=O)C2)c1Cl |  |
| 1 to 5 | 1 to 5 |  |  | COc1cn[nH]c(=O)c1N1CCN(Cc2ccc(F)cc2C)CC1 |  |
| 10 to 500 | 10 to 500 |  |  | Cc1cc(F)ccc1CN1CCN(c2c(Br)n[nH]c(=O)c2Cl)CC1=O |  |

Further lines, the compound ahead of its results:

| SMILES | IC50 [2, 3] [µM] | IC50 [2, 4] [µM] | IC50 [2, 5] [µM] | IC50 [2, 6] [µM] | other results |
| --- | --- | --- | --- | --- | --- |
| CCS(=O)(=O)c1nn(Cc2ccc(F)cc2C(F)F)c2c1CN(c1cn[nH]c(=O)c1Cl)CC2 |  |  |  |  | IC50 [1]: 1000 to 5000 nM |
| C[C@@H](c1cc(F)ccc1C(F)(F)F)n1nnc2c1CCN(c1cn[nH]c(=O)c1Cl)C2 |  |  |  |  | IC50 [1]: 0.01 to 1000 nM |
| O=c1[nH]ncc(N2CCc3c(ncn3Cc3cccnc3CC(F)F)C2)c1Cl [drawing 1058] |  |  |  |  | IC50 [1]: 0.01 to 1000 nM |
| O=c1[nH]ncc(N2CCc3c(c(=O)[nH]n3Cc3ccccc3C(F)F)C2)c1Cl [drawing 1052] |  |  |  |  | IC50 [1]: 0.01 to 1000 nM |
| O=c1[nH]ncc(N2CCc3c(ncn3Cc3ccccc3)C2)c1Cl [drawing 831] | 1 to 5 | 1 to 5 |  |  |  |
| Cc1ccccc1CN1CCN(c2cn[nH]c(=O)c2Oc2ccccc2)CC1=O |  |  | 10 to 500 | 10 to 500 |  |
| CCn1nc(CN2CCN(c3cn[nH]c(=O)c3Cl)CC2)c2ccccc21 | 10 to 500 | 10 to 500 |  |  |  |
| Cn1nccc1CN1CCN(c2cn[nH]c(=O)c2Br)CC1 |  |  |  |  | IC50 [2, 7]: 5 to 10 µM; IC50 [2, 8]: 5 to 10 µM |
| C=Cc1c(N2CCN(Cc3ccccc3C)C(=O)C2)cn[nH]c1=O |  |  | 1 to 5 | 1 to 5 |  |
| O=C1N(Cc2ccccc2C(F)(F)F)CCC12CCN(c1cn[nH]c(=O)c1Br)CC2 | 10 to 500 | 10 to 500 |  |  |  |
| Cc1cc(F)ccc1CN1CCN(c2c(Cl)c(Br)n[nH]c2=O)CC1 | 10 to 500 | 10 to 500 |  |  |  |
| O=C1CN(c2cn[nH]c(=O)c2C(F)(F)F)CCN1Cc1ccccc1C(F)(F)F | 1 to 5 | 1 to 5 |  |  |  |
| Cc1ccccc1CN1CCN(c2cn[nH]c(=O)c2-c2ccccc2)CC1 |  |  |  |  | IC50 [2, 7]: 5 to 10 µM; IC50 [2, 8]: 5 to 10 µM |
| COCCOc1c(N2CCN(Cc3ccccc3C)C(=O)C2)cn[nH]c1=O |  |  | 10 to 500 | 10 to 500 |  |
| O=c1[nH]ncc(N2CCN(C3(c4ccccc4)CC3)CC2)c1Cl |  |  | 5 to 10 | 5 to 10 |  |
| O=c1[nH]ncc(N2CCN(Cc3cccc4ccccc34)CC2)c1Cl |  |  | 1 to 5 | 1 to 5 |  |
| O=C1CN(c2cn[nH]c(=O)c2Cl)CCN1Cc1ccccc1C(F)(F)F |  |  |  |  | IC50 [2, 7]: 1e-05 to 1 µM; IC50 [2, 8]: 1e-05 to 1 µM |

| SMILES | IC50 [2, 3] [µM] | IC50 [2, 4] [µM] | IC50 [2, 5] [µM] | IC50 [2, 6] [µM] | other results |
| --- | --- | --- | --- | --- | --- |
| COc1cc(C(F)(F)F)ccc1CN1CCN(c2cn[nH]c(=O)c2Cl)CC1=O | 1 to 5 | 5 to 10 |  |  |  |
| COc1ccc(CN2CCN(c3cn[nH]c(=O)c3Cl)CC2=O)cc1 | 5 to 10 | 5 to 10 |  |  |  |
| Cc1cc(F)ccc1CN1CCN(c2cn[nH]c(=O)c2Cl)CC1 [drawing 679] |  |  |  |  | IC50 [2, 7]: 1 to 5 µM; IC50 [2, 8]: 1 to 5 µM |
| Cc1ccccc1CN1CC2CCC(C1)N2c1cn[nH]c(=O)c1Br |  |  |  |  | IC50 [2, 7]: 10 to 500 µM; IC50 [2, 8]: 10 to 500 µM |
| CCCc1c(N2CCN(Cc3ccccc3C)C(=O)C2)cn[nH]c1=O |  |  | 10 to 500 | 10 to 500 |  |
| Cc1ccccc1CN1CCN(c2cn[nH]c(=O)c2CCC(C)C)CC1=O [drawing 695] |  |  |  |  | IC50 [2, 7]: 10 to 500 µM; IC50 [2, 8]: 10 to 500 µM |
| O=c1[nH]ncc(N2CCc3c(ncn3Cc3ccccc3C(F)F)C2)c1Cl [drawing 839] |  |  |  |  | IC50 ([2]; Table 6, read-out: TRPC5-QPatch IC50): 5 to 10 µM |
| Cc1ccccc1CN1CCN(c2cn[nH]c(=O)c2C2CCOCC2)CC1=O |  |  | 10 to 500 | 10 to 500 |  |
| O=C1CN(c2cn[nH]c(=O)c2Cl)CCN1Cc1cccc(Oc2ccccc2)c1 |  |  | 1 to 5 | 1 to 5 |  |
| Cc1ccccc1CN1CC2CC1CN2c1cn[nH]c(=O)c1Br (centres unmarked) |  |  |  |  | IC50 [2, 7]: 10 to 500 µM; IC50 [2, 8]: 10 to 500 µM |
| O=C1CN(c2cn[nH]c(=O)c2Cl)CCN1Cc1ccc(Cl)cc1F |  |  |  |  | IC50 [2, 7]: 5 to 10 µM; IC50 [2, 8]: 5 to 10 µM |
| Cc1cc(F)ccc1CN1CCN(c2c(C)cn[nH]c2=O)CC1 | 1 to 5 | 1 to 5 |  |  |  |
| O=C1CN(c2cn[nH]c(=O)c2Cl)CCN1Cc1cccc2[nH]ncc12 | 10 to 500 | 10 to 500 |  |  |  |
| Cc1ccccc1CN1CCN(c2c(Br)cn[nH]c2=O)CC1 |  |  |  |  | IC50 [2, 9]: 1 to 5 µM; IC50 [2, 10]: 1 to 5 µM |
| Cc1ccccc1CN1CC2CC(C1)N2c1cn[nH]c(=O)c1Br |  |  |  |  | IC50 [2, 9]: 10 to 500 µM; IC50 [2, 10]: 10 to 500 µM |
| O=c1[nH]ncc(Cl)c1N1CCN(Cc2ccccc2C(F)(F)F)CC1 |  |  | 5 to 10 | 5 to 10 |  |
| O=c1[nH]ncc(N2CCOC(c3ccccc3)C2)c1Cl (centres unmarked) |  |  | 10 to 500 | 10 to 500 |  |
